Measured values: ChEMBL document CHEMBL4184156, “Repurposing Hsp90 inhibitors as antibiotics targeting histidine kinases” (Bioorg Med Chem Lett, 2017)
Converted amounts (≈) assume the structure as drawn.

Experiments:
[1] = test system: Escherichia coli; assay: Antimicrobial activity against Escherichia coli DC2 after 20 hrs by Mueller-Hinton Broth microdilution method; type: functional; settings: DC2, 20 h
[2] = test system: Bacillus subtilis; assay: Antimicrobial activity against Bacillus subtilis 3610 after 20 hrs by Mueller-Hinton Broth microdilution method; type: functional; settings: subsp. subtilis str. NCIB 3610, 20 h
[3] = biological target: T1, Chemotaxis protein CheA (Escherichia coli (strain K12), UniProt P07363); assay: Inhibition of Escherichia coli CheA preincubated for 30 mins followed by [gamma-33P]ATP addition after 30 mins by SDS-PAGE method
T1 sequence (P07363 whole entry): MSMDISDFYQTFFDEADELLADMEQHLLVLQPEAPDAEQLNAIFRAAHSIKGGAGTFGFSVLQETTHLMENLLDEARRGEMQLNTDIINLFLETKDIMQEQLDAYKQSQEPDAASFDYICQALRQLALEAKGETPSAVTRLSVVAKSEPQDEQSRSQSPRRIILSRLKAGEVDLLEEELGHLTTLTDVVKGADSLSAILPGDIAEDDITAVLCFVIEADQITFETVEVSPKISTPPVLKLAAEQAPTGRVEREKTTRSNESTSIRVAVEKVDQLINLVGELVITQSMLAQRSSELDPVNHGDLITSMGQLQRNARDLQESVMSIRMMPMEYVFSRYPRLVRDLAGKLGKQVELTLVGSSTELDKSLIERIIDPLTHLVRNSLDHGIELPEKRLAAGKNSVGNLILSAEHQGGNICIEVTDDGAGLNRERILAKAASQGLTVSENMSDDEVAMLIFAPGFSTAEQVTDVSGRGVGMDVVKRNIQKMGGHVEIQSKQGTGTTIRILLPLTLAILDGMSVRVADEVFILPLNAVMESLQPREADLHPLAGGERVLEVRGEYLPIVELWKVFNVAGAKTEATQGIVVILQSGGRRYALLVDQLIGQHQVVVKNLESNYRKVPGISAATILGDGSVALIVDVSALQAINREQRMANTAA

[4] = biological target: T2, Sensor protein kinase WalK family protein (Streptococcus pneumoniae PCS8203, UniProt A0A0H2UQD0); assay: Inhibition of Streptococcus pneumoniae VicK preincubated for 30 mins followed by [gamma-33P]ATP addition after 30 mins by SDS-PAGE method
T2 sequence (A0A0H2UQD0 whole entry): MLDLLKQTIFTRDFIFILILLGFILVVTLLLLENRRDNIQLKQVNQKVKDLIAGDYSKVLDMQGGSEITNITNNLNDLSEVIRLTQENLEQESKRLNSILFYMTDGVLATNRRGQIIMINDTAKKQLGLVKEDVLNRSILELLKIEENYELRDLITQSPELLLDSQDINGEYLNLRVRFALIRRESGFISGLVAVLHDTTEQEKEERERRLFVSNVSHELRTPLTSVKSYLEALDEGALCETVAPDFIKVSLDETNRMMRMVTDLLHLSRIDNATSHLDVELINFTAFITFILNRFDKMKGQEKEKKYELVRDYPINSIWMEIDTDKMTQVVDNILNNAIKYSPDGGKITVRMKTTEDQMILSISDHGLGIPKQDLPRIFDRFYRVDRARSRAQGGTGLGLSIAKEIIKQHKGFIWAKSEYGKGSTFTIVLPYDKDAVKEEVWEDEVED

[5] = Inhibition of Thermotoga maritima HK853 preincubated for 30 mins followed by B-ATPgammaS addition after 1 hr in dark by in-gel fluorescence analysis
[6] = biological target: T3, Phosphate regulon sensor protein PhoR (Escherichia coli (strain K12), UniProt P08400); assay: Inhibition of Escherichia coli DHp-catalytic domain PhoR autophosphorylation expressed in Escherichia coli RIL in presence of gamma-32P-ATP by SDS-PAGE analysis
T3 sequence (P08400 whole entry): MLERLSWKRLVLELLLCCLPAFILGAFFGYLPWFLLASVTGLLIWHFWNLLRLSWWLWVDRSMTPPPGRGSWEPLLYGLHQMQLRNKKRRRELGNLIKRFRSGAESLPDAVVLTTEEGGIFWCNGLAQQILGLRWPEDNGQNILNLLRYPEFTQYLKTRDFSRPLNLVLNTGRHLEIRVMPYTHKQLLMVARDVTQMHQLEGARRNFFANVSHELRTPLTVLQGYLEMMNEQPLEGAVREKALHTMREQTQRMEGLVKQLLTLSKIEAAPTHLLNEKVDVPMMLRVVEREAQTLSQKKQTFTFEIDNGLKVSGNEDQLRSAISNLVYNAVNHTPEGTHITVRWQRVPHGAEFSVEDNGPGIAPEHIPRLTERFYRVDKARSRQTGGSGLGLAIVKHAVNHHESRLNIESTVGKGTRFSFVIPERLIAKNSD

[7] = test system: Escherichia coli; assay: Antimicrobial activity against Escherichia coli CFT073 after 24 hrs by double dilution method; type: functional; settings: CFT073, 24 h
[8] = test system: Staphylococcus aureus; assay: Antimicrobial activity against Staphylococcus aureus 20231 after 24 hrs by double dilution method; type: functional; settings: Staphylococcus aureus, 20231, 24 h
[9] = biological target: T4, Phosphate regulon sensor protein phoR (Staphylococcus aureus subsp. aureus CN1, UniProt T1Y9P4); assay: Inhibition of Staphylococcus aureus DHp-catalytic domain PhoR autophosphorylation expressed in Escherichia coli RIL in presence of gamma-32P-ATP by SDS-PAGE analysis
T4 sequence (T1Y9P4 whole entry): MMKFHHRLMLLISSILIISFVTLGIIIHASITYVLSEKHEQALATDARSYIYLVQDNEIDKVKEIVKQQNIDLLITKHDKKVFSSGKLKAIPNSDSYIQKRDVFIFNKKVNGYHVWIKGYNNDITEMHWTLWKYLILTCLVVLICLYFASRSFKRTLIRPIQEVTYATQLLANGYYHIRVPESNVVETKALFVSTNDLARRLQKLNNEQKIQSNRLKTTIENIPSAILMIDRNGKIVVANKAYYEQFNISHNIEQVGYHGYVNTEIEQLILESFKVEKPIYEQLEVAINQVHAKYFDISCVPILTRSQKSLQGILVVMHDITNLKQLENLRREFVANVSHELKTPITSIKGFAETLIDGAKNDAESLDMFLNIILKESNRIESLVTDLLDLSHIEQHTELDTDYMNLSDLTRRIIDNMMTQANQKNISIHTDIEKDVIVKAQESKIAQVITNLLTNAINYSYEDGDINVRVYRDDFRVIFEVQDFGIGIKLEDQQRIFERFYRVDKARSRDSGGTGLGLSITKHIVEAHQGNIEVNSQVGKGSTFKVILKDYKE

[10] = biological target: T5, Sensor protein kinase WalK (Staphylococcus epidermidis (strain ATCC 35984 / RP62A), UniProt Q5HK19); assay: Inhibition of recombinant Staphylococcus epidermidis ATCC 35984 N-terminal GB1-tagged YycG expressed in Escherichia coli BL21 (DE3) preincubated for 30 mins followed by ATP addition after 30 mins by kinase-glo assay
T5 sequence (Q5HK19 whole entry): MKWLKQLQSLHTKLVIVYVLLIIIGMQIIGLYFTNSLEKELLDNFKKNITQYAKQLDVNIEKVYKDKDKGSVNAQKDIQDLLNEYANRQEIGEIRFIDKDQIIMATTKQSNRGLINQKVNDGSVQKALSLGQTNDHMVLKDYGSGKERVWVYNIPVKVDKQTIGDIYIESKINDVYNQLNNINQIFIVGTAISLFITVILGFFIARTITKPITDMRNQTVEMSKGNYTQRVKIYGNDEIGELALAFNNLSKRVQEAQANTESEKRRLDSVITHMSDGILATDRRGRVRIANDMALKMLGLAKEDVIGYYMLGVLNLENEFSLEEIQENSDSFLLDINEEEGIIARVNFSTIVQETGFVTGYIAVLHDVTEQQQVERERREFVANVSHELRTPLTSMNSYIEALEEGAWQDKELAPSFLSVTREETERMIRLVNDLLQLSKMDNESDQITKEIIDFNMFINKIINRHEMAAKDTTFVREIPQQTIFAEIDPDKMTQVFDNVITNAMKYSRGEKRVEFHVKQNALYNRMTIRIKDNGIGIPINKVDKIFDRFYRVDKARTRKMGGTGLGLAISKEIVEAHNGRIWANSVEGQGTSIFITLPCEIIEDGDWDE

[11] = test system: Staphylococcus epidermidis; assay: Antimicrobial activity against Staphylococcus epidermidis ATCC 35984 after 10 hrs; type: functional; settings: ATCC 35984, 10 h

O=c1cc(-c2ccc(O)c(O)c2)oc2cc(O)cc(O)c12 [LUTEOLIN]
MIC [1]: 8 mg/L (≈ 27.9 µM)
MIC [2]: > 128 mg/L
IC50 [3]: 111 µM
IC50 [4]: 216 µM
IC50 [5]: 15.1 µM

CCC(c1ccc(O)cc1)C(CC)c1ccc(F)cc1 (stereo unspecified)
IC50 [6]: 16 µM
MIC [7]: > 500 mg/L
MIC [8]: 8 mg/L (≈ 29.4 µM)
IC50 [9]: 212 µM

O=C(O)c1cccc(-c2ccc(/C=c3\sc4n(c3=O)C(c3ccc(F)cc3)C=C(c3ccccc3)N=4)o2)c1 (stereo unspecified)
IC50 [10]: 24 µM
MIC [11]: 1.6 mg/L (≈ 3.06 µM)
